“And” between values parts separate entries of the source, which are not always exact repeats. Equal entries are not always repeated.

From patent US10716773B2, “Compositions comprising 15-HEPE and methods of treating or preventing cancer and neurologic disease” (Afimmune Limited, priority 2015, dated 2020) come the findings set out here.

One assay concerns caspase-3/7. As to the kind of experiment: Staurosporine-induced caspase-3/7 activity in NHDF, measured in cell lysates with fluorogenic substrate Ac-DEVD-AMC. It counts as cell-based, human. The note with it: for Caspase-3/7 activity (Fluorescence 380 nm/440 nm) / Caspase-3/7 activity - Background (Fluorescence 380 nm/440 nm) / Caspese-3/7 activity/proteins: single replicates. The procedure: The potential inhibitory effect of compounds 15(S)-HEPE EE and EPA EE was evaluated on staurosporine-induced caspase activation in normal human dermal fibroblasts (NHDF). […] Normal human dermal fibroblasts (NHDF) were used at the 8th passage. […] Fibroblasts were seeded in 24-well plates and cultured for 24 hours in culture medium. The medium was then removed and replaced by assay medium containing or not (control) the test compounds and cells were pre-incubated for 24 hours. […] The cells were then incubated for 24 hours. Non-stimulated controls (without inducer) were performed in parallel. All experimental conditions were performed in n=3. […] Enzyme activity assay and protein quantification assay were performed in separated plates due to the fact that DTT used in the lysis buffer for caspase activity interferes with protein quantification. […] Lysis buffer: HEPES buffer (pH 7.4) containing EDTA, Triton X-100, NP-40 and DTT Assay Buffer: HEPES buffer (pH 7.4) containing NaCl, EDTA, NP-40, glycerol and DTT Substrate: Ac-DEVD-AMC, tested at 10 μM (stock solution at 1.5 mM in DMSO) Reference inhibitor: […] Ac-DEVD-AMC is a synthetic tetrapeptide fluorogenic substrate for caspase-3 and caspase-7 and contains the amino acid sequence of the PARP cleavage site at […]. […] Enzymes cleave the tetrapeptide between D and AMC resulting in the release of fluorogenic AMC, which can be quantified with a spectrofluorometer. […] In parallel, an additional control (assay buffer containing the substrate) was also performed to determine the background signal. At the end of incubation, the fluorescence intensity emitted by the reaction product (cleaved Ac-DEVD-AMC) was measured at wavelengths λex 380 nm and λem 440 nm using a spectrofluorimeter (SPECTRAmax® Gemini, Molecular Devices).

For assay [1], the system named is normal human dermal fibroblasts (NHDF). The experiment in a line: MTT reduction assay and observation of the cell layers: viability of fibroblasts after 48 hours of incubation. It counts as cell-based. The following applies: for Visability (%): single replicates. The procedure:
Normal human dermal fibroblasts (NHDF) were used at the 8th passage. Cells were cultured at 37° C., 5% CO2 in DMEM supplemented with L-glutamine 2 mM, 50 U/ml Penicillin, 50 μg/ml Streptomycin and 10% Foetal calf serum (FCS).

[2] abbreviates: 0.1 μm, inhibitor added in the reaction mix of stimulated control lysate.
Setting [3] is: 0.1 μm, inhibitor added in the reaction mix of stimulated control lysate, listed as Ao-DEVO-CHO.
The mark [4] stands for this setting: 0.001 μg/ml, staurosporine-stimulated NHDF.
Where [5] appears, read: 0.001 μg/ml, staurosporine-stimulated NHDF, listed as 16(8)-HE PE EE.
The mark [6] stands for this setting: 0.01 μg/ml, staurosporine-stimulated NHDF.
The mark [7] stands for this setting: 0.01 μg/ml, staurosporine-stimulated NHDF, listed as 16(8)-HE PE EE.
Where [8] appears, read: 0.1 μg/ml, staurosporine-stimulated NHDF.
[9] abbreviates: 0.1 μg/ml, staurosporine-stimulated NHDF, listed as 16(8)-HE PE EE.
Where [10] appears, read: 1 μg/ml, staurosporine-stimulated NHDF.
The mark [11] stands for this setting: 1 μg/ml, staurosporine-stimulated NHDF, listed as 16(8)-HE PE EE.
The mark [12] stands for this setting: 10 μg/ml, staurosporine-stimulated NHDF.
The mark [13] stands for this setting: 10 μg/ml, staurosporine-stimulated NHDF, listed as 16(8)-HE PE EE.
[14] abbreviates: 100 μg/ml, staurosporine-stimulated NHDF.
Setting [15] is: 100 μg/ml, staurosporine-stimulated NHDF, listed as 16(8)-HE PE EE.

Consider Ac-DEVD-CHO, for which the “inhibition of staurosporine-stimulated caspase-3/7 activity (in words)” value in the assay with caspase-3/7 (0.1 μM, added in the reaction mix) is on record as “fully inhibited”. In addition, in the assay on caspase-3/7 (setting [2]), the “% inhibition” value is given as 109%, the “% stimulated control” value is listed as 1% and the “Normalized data: Mean (caspase-3/7 activity/proteins)” value worked out at 954 AU/mg. In the assay on caspase-3/7 (setting [3]), the “Caspase-3/7 activity (Fluorescence 380 nm/440 nm)” value is 347 AU and 343 AU and 339 AU; the “Caspase-3/7 activity - Background (Fluorescence 380 nm/440 nm)” value was 17 AU and 13 AU and 10 AU; the Caspese-3/7 activity/proteins was 1254 AU/mg and 934 AU/mg and 674 AU/mg.
Take `CC/C=C\C[C@H](O)/C=C/C=C\C/C=C\C/C=C\CCCC(=O)OCC` [15(S)-HEPE EE]: the “Visability (%) Mean” value is reported as 98% in assay [1] (0.001 μg/ml); 96% in assay [1] (0.01 μg/ml); 97% in assay [1] (0.1 μg/ml); 97% in assay [1] (1 μg/ml); 101% in assay [1] (10 μg/ml); 99% in assay [1] (30 μg/ml). The “Visability (%) Mean” value in assay [1] (100 μg/ml) turned out to be 104%; in assay [1] (300 μg/ml), 100%. The “Visability (%)” value in assay [1] (0.001 μg/ml) is 99% and 97% and 98%; in assay [1] (0.01 μg/ml), 90% and 100% and 98%; in assay [1] (0.1 μg/ml) it was 99% and 96% and 98%; in assay [1] (1 μg/ml) it was 96% (2×) and 97%; in assay [1] (10 μg/ml) it was 100% and 102% and 101%; in assay [1] (30 μg/ml), 103% and 98% and 96%. The “Visability (%)” value in assay [1] (100 μg/ml) is 103% and 105% and 104%; in assay [1] (300 μg/ml) it was 98% and 105% and 97%. For the same compound, the “% inhibition” value with caspase-3/7 (setting [4]) was −37%; in the assay with caspase-3/7 (setting [6]), −6%; in the assay with caspase-3/7 (setting [8]) it was 4%; with caspase-3/7 (setting [10]), −9%; with caspase-3/7 (setting [12]), 8%; in the assay on caspase-3/7 (setting [14]), 83%. Also, the “% stimulated control” value in the assay with caspase-3/7 (setting [4]) was found to be 134%; in the assay with caspase-3/7 (setting [6]) it was 106%; in the assay on caspase-3/7 (setting [8]) it was 98%; in the assay on caspase-3/7 (setting [10]), 108%; with caspase-3/7 (setting [12]), 93%; in the assay with caspase-3/7 (setting [14]) it was 26%. Also, the “Normalized data: Mean (caspase-3/7 activity/proteins)” value in the assay with caspase-3/7 (setting [4]) was determined as 114767 AU/mg; with caspase-3/7 (setting [6]) it was 90306 AU/mg; in the assay on caspase-3/7 (setting [8]) it was 82485 AU/mg; in the assay on caspase-3/7 (setting [10]), 93200 AU/mg; in the assay on caspase-3/7 (setting [12]) it was 80078 AU/mg; in the assay with caspase-3/7 (setting [14]), 21632 AU/mg. Moreover, the “Caspase-3/7 activity (Fluorescence 380 nm/440 nm)” value in the assay with caspase-3/7 (setting [5]) was 1809 AU and 1753 AU and 1686 AU; with caspase-3/7 (setting [7]), 1495 AU and 1587 AU and 1789 AU; in the assay with caspase-3/7 (setting [9]) it was 1468 AU and 1697 AU and 1154 AU; in the assay on caspase-3/7 (setting [11]), 1536 AU and 1600 AU and 1735 AU; with caspase-3/7 (setting [13]) it was 1439 AU and 1551 AU and 1514 AU; with caspase-3/7 (setting [15]) it was 663 AU and 729 AU and 660 AU. In addition, the “Caspase-3/7 activity - Background (Fluorescence 380 nm/440 nm)” value with caspase-3/7 (setting [5]) was 1479 AU and 1423 AU and 1396 AU; in the assay on caspase-3/7 (setting [7]), 1166 AU and 1258 AU and 1459 AU; with caspase-3/7 (setting [9]), 1139 AU and 1367 AU and 825 AU; in the assay with caspase-3/7 (setting [11]), 1206 AU and 1270 AU and 1406 AU; in the assay on caspase-3/7 (setting [13]) it was 1109 AU and 1221 AU and 1184 AU; with caspase-3/7 (setting [15]), 324 AU and 400 AU and 320 AU. The Caspese-3/7 activity/proteins in the assay with caspase-3/7 (setting [5]) is 109076 AU/mg and 129611 AU/mg and 105615 AU/mg; in the assay with caspase-3/7 (setting [7]) it was 81085 AU/mg and 89757 AU/mg and 100075 AU/mg; in the assay with caspase-3/7 (setting [9]), 81102 AU/mg and 109799 AU/mg and 56654 AU/mg; in the assay on caspase-3/7 (setting [11]), 86474 AU/mg and 94481 AU/mg and 93645 AU/mg; in the assay on caspase-3/7 (setting [13]), 76241 AU/mg and 81395 AU/mg and 82597 AU/mg; with caspase-3/7 (setting [15]), 15788 AU/mg and 15464 AU/mg and 19643 AU/mg. Moreover, the “effect on caspase-3/7 activity (in words)” value in the assay on caspase-3/7 (setting [14]) was “clear inhibitory effect”; in the assay with caspase-3/7 (tested from 0.001 to 10 μg/ml, staurosporine-stimulated NHDF), “no effect”.
Regarding `CN[C@@H]1C[C@H]2O[C@@](C)([C@@H]1OC)n1c3ccccc3c3c4c(c5c6ccccc6n2c5c31)C(=O)NC4` [staurosporine], in the assay with caspase-3/7 (staurosporine 100 nM, NHDF), the “increase of caspase-3/7 activity normalized versus protein quantity, staurosporine-stimulated versus non-stimulated conditions” value is given as 10 fold.
